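Following 48 hours of exposure in 96-well plates, responses at five concentrations were used to interpolate endpoints linearly. GI50 = concentration required for 50% inhibition of growth. TGI: concentration producing complete growth inhibition.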
Key:
Experiment in all cases: NCI tumour cell line growth inhibition, 48 h
UO-31 renal = system: UO-31 renal
NCI/ADR-RES ovarian = system: NCI/ADR-RES ovarian
SF-539 CNS = system: SF-539 CNS
MDA-MB-231 breast = system: MDA-MB-231 breast
SF-295 CNS = system: SF-295 CNS
U251 CNS = system: U251 CNS
SR leukemia = system: SR leukemia
HCT-116 colon = system: HCT-116 colon
MDA-N = system: MDA-N
NCI-H522 lung = system: NCI-H522 lung

| SMILES | TGI (UO-31 renal) [µM] | TGI (NCI/ADR-RES ovarian) [µM] | TGI (SF-539 CNS) [µM] | TGI (MDA-MB-231 breast) [µM] | TGI (SF-295 CNS) [µM] | TGI (U251 CNS) [µM] | TGI (SR leukemia) [µM] | TGI (HCT-116 colon) [µM] | TGI (MDA-N) [µM] | TGI (NCI-H522 lung) [µM] | GI50 (UO-31 renal) [µM] | GI50 (NCI-H522 lung) [µM] | GI50 (NCI/ADR-RES ovarian) [µM] | GI50 (SF-539 CNS) [µM] | GI50 (MDA-MB-231 breast) [µM] | GI50 (SF-295 CNS) [µM] | GI50 (U251 CNS) [µM] | GI50 (HCT-116 colon) [µM] |
| --- | --- | --- | --- | --- | --- | --- | --- | --- | --- | --- | --- | --- | --- | --- | --- | --- | --- | --- |
| COc1ccc(/C=C2\CSC/C(=C\c3ccc(OC)c(OC)c3OC)C2=O)c(OC)c1OC | > 100 | > 100 | 88.6 | > 100 | 99.6 | > 100 | 80.4 | 39 | > 100 | – | – | – | – | – | – | – | – | – |
| O=C(O)CSc1cc(-c2ccccc2)nc2ccccc12 | > 100 | > 100 | – | > 100 | > 100 | > 100 | > 100 | 22 | > 100 | 70.9 | – | – | – | – | – | – | – | – |
| O=C1OCC(C#Cc2ccccc2)=C1Cl | > 100 | 13.8 | 19.5 | 6.39 | > 100 | 3.13 | – | 1.38 | – | 14.7 | 2.15 | 3.08 | 3.32 | 2.52 | 1.19 | 21.6 | 1.59 | 0.322 |
| Cc1csc2nc(-c3ccc([N+](=O)[O-])cc3)c(/C=N/N=C(N)N)n12 | 2.88 | > 50.8 | 3.08 | 3.52 | 3.24 | 3.24 | – | 3.76 | 3.51 | 3.08 | – | – | – | – | – | – | – | – |
| CC1CCCC2=C1C(c1ccc(Cl)cc1)n1c(s/c(=C\c3ccc(Cl)cc3)c1=O)=N2 (stereo not drawn) | > 100 | – | – | > 100 | – | > 100 | – | > 100 | > 100 | – | – | – | – | – | – | – | – | – |
| CCOc1ccc2c(c1)/C(=C(\C(Cl)=C(Cl)Cl)[N+](=O)[O-])N2 | > 100 | > 100 | > 100 | > 100 | > 100 | > 100 | – | > 100 | > 100 | – | – | – | – | – | – | – | – | – |
| c1ccc(C2SCC3=Nc4ccccc4CN32)cc1 (stereo not drawn) | > 100 | 48 | 99.2 | > 100 | 70.8 | > 100 | > 100 | 51.9 | > 100 | – | – | – | – | – | – | – | – | – |
| Cc1cc2[nH]c3c(C#N)c(-c4ccccc4)c(N=Nc4cccc(C(F)(F)F)c4)c(=O)n3c2cc1C | > 100 | > 100 | > 100 | > 100 | > 100 | > 100 | – | > 100 | > 100 | 69.4 | – | – | – | – | – | – | – | – |
| O=C(N/N=C1\CCc2ccccc2C1)N/N=C1\CCc2ccccc2C1 | > 10 | > 10 | – | > 10 | > 10 | > 10 | > 10 | > 10 | > 10 | > 10 | – | – | – | – | – | – | – | – |
| CC1C(c2ccc3c(c2)OCO3)c2cc3c(cc2OC1N1CCCC1)OCO3 (stereo not drawn) | 73 | 87.7 | 50.9 | – | > 100 | – | 89.8 | 54.8 | 52.3 | 80.4 | – | – | – | – | – | – | – | – |
| COc1cc(N=NN(C)C)c(C(C)c2c3cc(OC)c(OC)cc3cc[n+]2C)cc1OC (stereo not drawn) | > 100 | > 100 | 47.3 | 77 | > 100 | > 100 | – | > 100 | > 100 | – | – | – | – | – | – | – | – | – |
| O=C(O)CSCC(=O)Nc1ccc2cccc3c2c1CC3 | > 100 | > 100 | > 100 | > 100 | > 100 | > 100 | – | > 100 | > 100 | > 100 | – | – | – | – | – | – | – | – |
| O=C1CCCc2c1c1c(n2Cc2ccccc2)-c2ccccc2C1=O | > 100 | 50.1 | 48.6 | 42.9 | 37.5 | 43.9 | – | 31.1 | – | 33.8 | – | – | – | – | – | – | – | – |
| CC(=O)c1ccc(Oc2ccc(/C(C)=N\N=C(N)N)cc2)cc1 | – | – | 3.48 | – | 6.18 | 10 | – | 13 | – | 4.04 | – | – | – | – | – | – | – | – |
| CCP(=O)(CC)C(Cl)(Cl)C(O)C(C)(C)C (stereo not drawn) | > 100 | > 100 | – | > 100 | > 100 | > 100 | > 100 | > 100 | > 100 | > 100 | – | – | – | – | – | – | – | – |
| Nc1nc(Cl)cc(NCC2(CO)CCC(Cc3ccccc3)C2)n1 (stereo not drawn) | > 92.6 | > 100 | > 100 | > 100 | > 100 | > 100 | – | > 100 | > 91.5 | 49 | – | – | – | – | – | – | – | – |
| CC(C)(C)[Si](C)(C)OCCCC#CCO | > 100 | – | > 100 | – | > 100 | > 100 | – | – | – | > 100 | – | – | – | – | – | – | – | – |
| CN(C)CCNc1ccc([N+](=O)[O-])c2nc3ccccc3c(N)c12 | 4.27 | 2.45 | 4.48 | 6.89 | 8.1 | > 10 | 1.73 | 1.91 | 2.09 | – | – | – | – | – | – | – | – | – |
